Where two headings read alike, the source gives them in different places.
Assays:
hepatocytes [1] = test system: hepatocytes
Procedure: As described further below, in certain embodiments, the number of bright and/or punctate regions in the lysosomal marker image is used as an indication of phospholipidosis.
An exemplary procedure for preparing hepatocyte cultures will now be described. Specifically, the procedure involves the use of primary rat hepatocytes as follows:
11. Twenty three thousand cells/well are plated in a 96 flat well plate pre-coated with collagen I (BD Biosciences, San Jose, Calif. or CellzDirect, Tucson, Ariz.). The plates are incubated at 37° C./5% CO2 for two hours. At the end of the two hour incubation, plating medium is aspirated and cold Hepatozyme medium containing 250 micrograms/ml of Matrigel (BD Biosciences) is added, and the plates are incubated overnight.
The following example is a procedure for fixing and staining primary rat hepatocytes to visualize nuclei, lysotracker, and Alexa 647 nm succinimidyl ester reagent (A647SE). A647SE is used to segment individual hepatocytes within an image. • 1) At 24 hr after compound addition to cells, 50 ul of Hepatozyme medium (prewarmed to 37° C.) containing 187.5 nM of lysotracker dye is added to each well. Plates are placed back to incubator for 30 min, then 150 μl of fix solution (8% paraformaldehyde, in 1× PBS) and incubate at room temperature for 30 min. • 2) Aspirate the fix solution, and add 350 μl of wash buffer (1× PBS, 0.02% Triton X-100) to each well. Aspirate and dispense wash buffer 2 times. • 3) Aspirate off the wash buffer, and add 100 ul per well of A647SE mix: 0.5 μg/ml A647SE (stock 10 mg/ml) and 1:1000 dilution of Hoechst 33342 (stock 5 mg/ml) in wash buffer. Incubate at room temperature for one hour in the dark. • 4) Aspirate the staining solution, and add 350 μl of wash buffer (1× PBS, […]) to each well. Aspirate and dispense wash buffer 2 times. Leave the last wash buffer in the well. • 5) Seal the plate and store at room temperature in the dark prior to imaging.
In certain embodiments, a stimulus response curve may be generated for a stimulus of interest. In certain embodiments, the stimulus response curve plots the feature or features used to characterize phospholipidosis (e.g., granularity or mean intensity) against concentrations of a stimulus.

hepatocytes [2] = test: Cell death of hepatocytes treated with compound; format: cell-based; conditions: Rattus norvegicus, Hepatocyte, arrow in FIG. 5A

mean intensity of the LysoTracker marker (per-cell basis) versus concentration (hepatocytes [1]) | proportion of bright/punctate cells (LysoTracker images) (hepatocytes [1]) | total granularity versus concentration (hepatocytes [1]) | Compound | induction of phospholipidosis as concluded from the response curves (hepatocytes [1]) | IC50 (hepatocytes [2]) [µM] | proportion of bright/punctate cells (LysoTracker images) (hepatocytes [1]; at several concentrations below EC50 of cell death, FIG. 2B, versus DMSO control)
increases | increase | spikes | CN(C)CCCN1c2ccccc2Sc2ccc(Cl)cc21 [chlorpromazine] | induced phospholipidosis | 25 | –
– | – | – | C[C@H](CCC(=O)NCCS(=O)(=O)O)[C@H]1CC[C@H]2[C@@H]3CC[C@@H]4C[C@H](O)CC[C@]4(C)[C@H]3CC[C@]12C [Taurolithocholate, taurolithocholate] | – | – | decrease
